{"source": "patent US9730944B2", "about": "“Antiviral activity of novel bicyclic heterocycles” (priority 2010, dated 2017)", "key": {"[1]": {"system": "genotype 1a H-77 replicon", "experiment": "HCV-1a replicon potency in RLuc-1 cells, bioluminescence", "format": "cell-based", "settings": "for HCV-1a Replicon Selectivity Index: CC50/EC50, genotype 1a replicon"}, "genotype 1b replicon": {"system": "genotype 1b replicon", "experiment": "HCV genotype 1b replicon potency in R-luc cells, bioluminescence", "format": "cell-based", "settings": "72 hours, average of two or more independent experiments ± std. dev, read-out: Stable replicon cell lines EC50 (μM) Genotype1b (R-luc)"}, "[2]": {"system": "genotype 1a H-77 replicon", "experiment": "HCV genotype 1a replicon potency in GLuc-1 cells, bioluminescence", "format": "cell-based", "settings": "72 hours, average of two or more independent experiments ± std. dev, read-out: Stable replicon cell lines EC50 (μM) Genotype 1a (Gluc-1)"}, "[3]": {"system": "infectious genotype 2a virus (a J6/JFH-1 chimera)", "experiment": "JFH-1 HCV-2a virus assay in Lunet-CD81 cells, NS3 expression readout", "format": "cell-based"}, "poliovirus (PV type 1)": {"system": "poliovirus (PV type 1)", "experiment": "microbe, parasite or virus in culture", "format": "cell-based", "settings": "Enterovirus C, read-out: PV-1 EC50"}, "poliovirus (PV type 2)": {"system": "poliovirus (PV type 2)", "experiment": "microbe, parasite or virus in culture", "format": "cell-based", "settings": "Enterovirus C, read-out: PV-2 EC50"}, "poliovirus (PV type 3)": {"system": "poliovirus (PV type 3)", "experiment": "microbe, parasite or virus in culture", "format": "cell-based", "settings": "Enterovirus C, read-out: PV-3 EC50"}, "in vitro [4]": {"experiment": "in vitro", "settings": "African green monkey, PV CC50"}, "in vitro [5]": {"experiment": "in vitro", "settings": "human, PV CC50"}, "[6]": {"experiment": "Cytotoxicity in G-luc replicon cells, Promega CellTiter-Glo cell viability assay", "settings": "G-luc (GLuc-1) HCV genotype 1a H-77 replicon cells"}, "[7]": {"experiment": "Cytotoxicity in HCV-1a replicon cells, Promega CellTiter-Glo cell viability assay"}, "[8]": {"biological_target": "purine nucleoside phosphorylase (Homo sapiens, UniProt P00491)", "sequence (P00491 whole entry, species assumed)": "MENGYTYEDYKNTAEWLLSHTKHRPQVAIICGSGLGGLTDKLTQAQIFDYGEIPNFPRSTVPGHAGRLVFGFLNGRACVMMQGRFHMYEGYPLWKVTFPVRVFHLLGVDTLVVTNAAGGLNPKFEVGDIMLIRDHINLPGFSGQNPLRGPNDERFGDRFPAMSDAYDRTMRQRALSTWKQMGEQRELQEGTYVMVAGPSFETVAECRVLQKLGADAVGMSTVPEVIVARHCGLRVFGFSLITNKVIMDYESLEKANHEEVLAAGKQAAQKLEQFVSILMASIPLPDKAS", "settings": "J. C. Sircar et al. J. Med. Chem. 1986, 29, 1804-1806; cited from earlier work"}, "RLuc-1 cells": {"system": "RLuc-1 cells", "experiment": "Cytotoxicity in HCV-1a replicon cells, Promega CellTiter-Glo cell viability assay", "settings": "read-out: HCV-1a Replicon CC50; replicon cells, 72 hours, CellTiter-Glo"}, "hRV-2": {"system": "hRV-2", "experiment": "Rhinovirus type 2 antiviral assay in Hela Rh cells, MTS readout", "format": "cell-based, Human rhinovirus", "settings": "Rhinovirus A, HRV2, HeLa Rh, Hela Rh cells; read-out: hRV-2 EC50"}, "hRV-9": {"system": "hRV-9", "experiment": "Rhinovirus type 9 antiviral assay in Hela Rh cells, MTS readout", "format": "cell-based, Human rhinovirus", "settings": "Human rhinovirus sp., HRV9, HeLa Rh, Hela Rh cells; read-out: hRV-9 EC50"}, "hRV-14": {"system": "hRV-14", "experiment": "Rhinovirus type 14 antiviral assay in Hela Rh cells, MTS readout", "format": "cell-based, Human rhinovirus", "settings": "Rhinovirus B, HRV14, HeLa Rh, Hela Rh cells; read-out: hRV-14 EC50"}, "hRV-15": {"system": "hRV-15", "experiment": "Rhinovirus type 15 antiviral assay in Hela Rh cells, MTS readout", "format": "cell-based, Human rhinovirus", "settings": "Human rhinovirus sp., HRV15, HeLa Rh, Hela Rh cells; read-out: hRV-15 EC50"}, "hRV-29": {"system": "hRV-29", "experiment": "Rhinovirus type 29 antiviral assay in Hela Rh cells, MTS readout", "format": "cell-based", "settings": "Human rhinovirus sp., HRV29, HeLa Rh, Hela Rh cells; read-out: hRV-29 EC50"}, "hRV-39": {"system": "hRV-39", "experiment": "Rhinovirus type 39 antiviral assay in Hela Rh cells, MTS readout", "format": "cell-based, Human rhinovirus", "settings": "Human rhinovirus sp., HRV39, HeLa Rh, Hela Rh cells; read-out: hRV-39 EC50"}, "hRV-41": {"system": "hRV-41", "experiment": "Rhinovirus type 41 antiviral assay in Hela Rh cells, MTS readout", "format": "cell-based, Human rhinovirus", "settings": "Human rhinovirus sp., HRV41, HeLa Rh, Hela Rh cells; read-out: hRV-41 EC50"}, "hRV-42": {"system": "hRV-42", "experiment": "Rhinovirus type 42 antiviral assay in Hela Rh cells, MTS readout", "format": "cell-based, Human rhinovirus", "settings": "Human rhinovirus sp., HRV42, HeLa Rh, Hela Rh cells; read-out: hRV-42 EC50"}, "hRV-45": {"system": "hRV-45", "experiment": "Rhinovirus type 45 antiviral assay in Hela Rh cells, MTS readout", "format": "cell-based, Human rhinovirus", "settings": "Human rhinovirus sp., HRV45, HeLa Rh, Hela Rh cells; read-out: hRV-45 EC50"}, "hRV-63": {"system": "hRV-63", "experiment": "Rhinovirus type 63 antiviral assay in Hela Rh cells, MTS readout", "format": "cell-based, Human rhinovirus", "settings": "Human rhinovirus sp., HRV63, HeLa Rh, Hela Rh cells; read-out: hRV-63 EC50"}, "hRV-70": {"system": "hRV-70", "experiment": "Rhinovirus type 70 antiviral assay in Hela Rh cells, MTS readout", "format": "cell-based, Human rhinovirus", "settings": "Human rhinovirus sp., HRV70, HeLa Rh, Hela Rh cells; read-out: hRV-70 EC50"}, "hRV-72": {"system": "hRV-72", "experiment": "Rhinovirus type 72 antiviral assay in Hela Rh cells, MTS readout", "format": "cell-based, Human rhinovirus", "settings": "Human rhinovirus sp., HRV72, HeLa Rh, Hela Rh cells; read-out: hRV-72 EC50"}, "hRV-85": {"system": "hRV-85", "experiment": "Rhinovirus type 85 antiviral assay in Hela Rh cells, MTS readout", "format": "cell-based, Human rhinovirus", "settings": "Human rhinovirus sp., HRV85, HeLa Rh, Hela Rh cells; read-out: hRV-85 EC50"}, "hRV-86": {"system": "hRV-86", "experiment": "Rhinovirus type 86 antiviral assay in Hela Rh cells, MTS readout", "format": "cell-based, Human rhinovirus", "settings": "Human rhinovirus sp., HRV86, HeLa Rh, Hela Rh cells; read-out: hRV-86 EC50"}, "[9]": {"experiment": "Cytostatic/cytotoxic effect in Hela Rh cells (rhinovirus methodology, MTS)", "settings": "human, CC50, Hela Rh cells"}, "[10]": {"settings": "Hepatitis C virus, 72 h, read-out: HCV-1a Replicon EC50 (μM)"}, "[11]": {"settings": "Hepatitis C virus, 72 h, read-out: Genotype 2a Virus (Lunet-CD81) EC50 (μM)"}, "[12]": {"settings": "RLuc-1 cells, 72 hours, bioluminescence, read-out: HCV-1a Replicon EC50"}}, "note": "Where two headings read alike, the source gives them in different places."}
{"smiles": "Nc1nc(N2CCN(C(=O)COc3ccc(Cl)cc3)CC2)c2nc(C3CC3)sc2n1", "note": "[Example 119, 5-amino-2-cyclopropyl-7-[4-(4-chlorophenoxyacetyl)piperazin-1-yl]-thiazolo[5,4-d]pyrimidine]", "values": [{"measurement": "HCV-1a Replicon Selectivity Index", "setting": "[1]", "result": ">87"}, {"measurement": "EC50", "setting": "[1]; [10]", "result": 0.5, "unit": "µM"}, {"measurement": "EC50", "setting": "genotype 1b replicon; Hepatitis C virus", "result": "0.341 ± 0.024", "unit": "µM"}, {"measurement": "EC50", "setting": "[2]; Hepatitis C virus", "result": "0.422 ± 0.104", "unit": "µM"}, {"measurement": "EC50", "setting": "[3]; [11]", "result": "> 50", "unit": "µM"}, {"measurement": "EC50", "setting": "poliovirus (PV type 1); HeLa", "result": 24.1, "unit": "µg/mL"}, {"measurement": "EC50", "setting": "poliovirus (PV type 1); Vero", "result": 0.34, "unit": "µg/mL"}, {"measurement": "EC50", "setting": "poliovirus (PV type 2); HeLa", "result": 1.21, "unit": "µg/mL"}, {"measurement": "EC50", "setting": "poliovirus (PV type 2); Vero", "result": 0.33, "unit": "µg/mL"}, {"measurement": "EC50", "setting": "poliovirus (PV type 3); HeLa", "result": "> 50", "unit": "µg/mL"}, {"measurement": "EC50", "setting": "poliovirus (PV type 3); Vero", "result": 12.5, "unit": "µg/mL"}, {"measurement": "CC50", "setting": "in vitro [4]", "result": "> 150", "unit": "µg/mL"}, {"measurement": "CC50", "setting": "in vitro [5]", "result": "> 50", "unit": "µg/mL"}, {"measurement": "CC50 at 72 h", "setting": "[6]", "result": "> 50000", "unit": "nM"}, {"measurement": "CC50 at 72 h", "setting": "[7]", "result": "> 44400", "unit": "nM"}]}
{"smiles": "Nc1nc2sc(N)nc2c(=O)[nH]1", "note": "[2,5-Diaminothiazolo[5,4-d]pyrimidin-7(6H)-one]", "values": [{"measurement": "inhibitor of purine nucleoside phosphorylase", "setting": "[8]", "result": "weak inhibitor"}]}
{"smiles": "Nc1nc(NCc2ccccc2)c2cc(-c3ccc(F)cc3)sc2n1", "note": "[Example 327, 2-amino-4-N-benzylamino-6-(4-fluorophenyl)-thieno[2,3-d]pyrimidine]", "values": [{"measurement": "EC50", "setting": "[1]; [12]", "result": 38.6, "unit": "µM"}, {"measurement": "CC50", "setting": "RLuc-1 cells", "result": 23200, "unit": "nM"}]}
{"smiles": "CSc1nc2c(N3CCN(C(=O)COc4ccc(Cl)cc4)CC3)nc(N)nc2n1C", "note": "[Example 428, 1-(4-(2-amino-9-methyl-8-(methylthio)-9H-purin-6-yl)piperazin-1-yl)-2-(4-chlorophenoxy)ethanone]", "values": [{"measurement": "HCV-1a Replicon Selectivity Index", "setting": "[1]", "result": ">888"}, {"measurement": "EC50", "setting": "[1]; [10]", "result": 0.05, "unit": "µM"}, {"measurement": "EC50", "setting": "genotype 1b replicon; Hepatitis C virus", "result": "0.005 ± 0.002", "unit": "µM"}, {"measurement": "EC50", "setting": "[2]; Hepatitis C virus", "result": "0.056 ± 0.002", "unit": "µM"}, {"measurement": "EC50", "setting": "[3]; [11]", "result": "> 50", "unit": "µM"}, {"measurement": "CC50 at 72 h", "setting": "[6]", "result": "> 50000", "unit": "nM"}, {"measurement": "CC50 at 72 h", "setting": "[7]", "result": "> 44400", "unit": "nM"}]}
{"smiles": "COC(=O)c1ccc(OCC(=O)N2CCN(c3nc(N)nc4sc(CCc5ccc(F)cc5)nc34)CC2)cc1", "note": "[Example 225, methyl 4-(2-(4-(5-amino-2-(4-fluorophenethyl)thiazolo[5,4-d]pyrimidin-7-yl)piperazin-1-yl)-2-oxoethoxy)benzoate]", "values": [{"measurement": "EC50", "setting": "hRV-2", "result": 1.12, "unit": "µg/mL"}, {"measurement": "EC50", "setting": "hRV-9", "result": "> 50", "unit": "µg/mL"}, {"measurement": "EC50", "setting": "hRV-14", "result": "> 50", "unit": "µg/mL"}, {"measurement": "EC50", "setting": "hRV-15", "result": "> 50", "unit": "µg/mL"}, {"measurement": "EC50", "setting": "hRV-29", "result": "> 50", "unit": "µg/mL"}, {"measurement": "EC50", "setting": "hRV-39", "result": "> 50", "unit": "µg/mL"}, {"measurement": "EC50", "setting": "hRV-41", "result": "> 50", "unit": "µg/mL"}, {"measurement": "EC50", "setting": "hRV-42", "result": "> 50", "unit": "µg/mL"}, {"measurement": "EC50", "setting": "hRV-45", "result": 43.1, "unit": "µg/mL"}, {"measurement": "EC50", "setting": "hRV-63", "result": 39.7, "unit": "µg/mL"}, {"measurement": "EC50", "setting": "hRV-70", "result": "> 50", "unit": "µg/mL"}, {"measurement": "EC50", "setting": "hRV-72", "result": "> 50", "unit": "µg/mL"}, {"measurement": "EC50", "setting": "hRV-85", "result": 14.6, "unit": "µg/mL"}, {"measurement": "EC50", "setting": "hRV-86", "result": "> 50", "unit": "µg/mL"}, {"measurement": "CC50", "setting": "[9]", "result": 5.34, "unit": "µg/mL"}]}
{"smiles": "CCCc1nc2c(N3CCN(C(=O)COc4ccc(Cl)cc4)CC3)nc(N)nc2[nH]1", "note": "[Example 397, 1-(4-(2-amino-8-propyl-9H-purin-64)piperazin-1-yl)-2-(4-chlorophenoxy)ethanone]", "values": [{"measurement": "EC50", "setting": "[1]; [12]", "result": 1.1, "unit": "µM"}, {"measurement": "EC50", "setting": "genotype 1b replicon", "result": "0.14 ± 0.11", "unit": "µM"}, {"measurement": "EC50", "setting": "[2]", "result": "0.181 ± 0.108", "unit": "µM"}, {"measurement": "EC50", "setting": "[3]; J6/JFH-1 chimera, MOI of 1, 72 hours, NS3 readout, read-out: Genotype 2a Virus (Lunet-CD81) EC50", "result": 31.2, "unit": "µM"}, {"measurement": "CC50", "setting": "RLuc-1 cells", "result": "> 44400", "unit": "nM"}]}
